{"source": "patent US10450260B2", "about": "“NO- and H2S-releasing compounds” (RESEARCH FOUNDATION OF THE CITY UNIVERSITY OF NEW YORK, priority 2011, dated 2019)", "key": {"ovine COX-2": {"biological_target": "T1, ovine COX-2 (Ovis aries, UniProt P79208)", "T1 construct": "purchased Cayman Chemicals (Ann Arbor, Mich.)", "T1 sequence (P79208 17-603)": "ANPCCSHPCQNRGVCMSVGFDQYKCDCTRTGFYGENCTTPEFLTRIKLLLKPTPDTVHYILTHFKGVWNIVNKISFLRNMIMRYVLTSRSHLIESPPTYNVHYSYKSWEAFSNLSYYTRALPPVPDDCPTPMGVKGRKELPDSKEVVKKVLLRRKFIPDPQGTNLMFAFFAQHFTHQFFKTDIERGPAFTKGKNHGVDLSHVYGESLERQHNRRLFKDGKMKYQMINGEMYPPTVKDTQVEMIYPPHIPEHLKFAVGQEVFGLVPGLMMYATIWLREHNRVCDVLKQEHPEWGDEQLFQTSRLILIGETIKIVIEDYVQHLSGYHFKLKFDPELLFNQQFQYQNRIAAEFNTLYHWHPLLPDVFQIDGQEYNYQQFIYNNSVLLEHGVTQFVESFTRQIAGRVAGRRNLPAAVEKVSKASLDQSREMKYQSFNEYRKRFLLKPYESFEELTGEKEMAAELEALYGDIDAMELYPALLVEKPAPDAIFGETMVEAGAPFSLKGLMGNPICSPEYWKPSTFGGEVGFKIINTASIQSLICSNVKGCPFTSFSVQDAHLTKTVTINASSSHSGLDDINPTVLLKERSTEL", "test": "COX-2 enzyme activity, colorimetric inhibitor screening kit", "assay_type": "biochemical", "details": "for inhibition at 3000 µM: read-out: COX-2-% Inhibition, 3 mM (Table 8)"}, "[1]": {"tested_on": "MDA-MB 231 human breast cancer", "test": "MTT cell growth inhibition, MDA MB231", "assay_type": "cell-based", "details": "for IC50: Homo sapiens, MDA-MB-231; for Ratio NSAID/NOSH-NSAID, MDA MB231: fold-enhancement in potency over the parent compound", "protocol": "(§1) HT-29, SW-480 and HCT-15 human colon adenocarcinoma, MIA PaCa-2 and BxPC-3 human pancreatic cancer, LNCAP human prostate cancer, A549 human lung cancer, MCF-7 (estrogen receptor positive), MDA-MB 231 and SK-BR-3 (estrogen receptor negative) human breast cancer, and Jurkats human leukemia cell lines were obtained from American Type Tissue Collection (Manassas, Va.). All cells lines were grown as monolayers except for the Jurkats which were grown in suspension. The pancreatic and breast cancer cells were grown in Dulbecco's modified Eagle's medium, the prostate, Jurkat, SW-480 and HCT-15 colon cells were grown in RPMI 1640 medium, the lung cells were grown in F-12 and the colon HT-29 cells were grown in McCoy 5A. All media were supplemented with 10% fetal calf serum (Invitrogen, Carlsbad, Calif.) penicillin (50 U/ml), and streptomycin (50 μg/ml) (Invitrogen, Carlsbad, Calif.). Cells were seeded on culture dishes at a density of 25×10^3 cells/cm^2 and incubated at 37° C. in 5% CO2 and 90% relative humidity. Single cell suspensions were obtained by trypsinization (0.05% trypsin/EDTA), and cells were counted using a hemocytometer. Viability was determined by the trypan blue dye exclusion method.\n(§2) Cell growth inhibitory effect of NOSH compounds were measured using a colorimetric MTT assay kit (Roche, Indianapolis, Ind.). Cancer cells were plated in 96-well plates at a density of 50,000 cells/well. The cells were incubated for 24 h with different concentrations of NOSH compounds. After the indicated time, 10 μl of MTT dye (3-[4,5-dimethylthiazol-2-yl]-2,5-diphenyl tetrazolium bromide, 5 mg/ml in phosphate buffered saline), was added to each well, and the plates were incubated for 2 hours at 37° C. Then, the media was aspirated, and add 100 μl of the solubilization solution (10% SDS in 0.01 M HCl) was added to each well to solubilize the formant crystals. The absorbance of the plates was measured on an ELISA reader at a wavelength of 570 nm. Each sample was performed in triplicate, and the entire experiment was repeated three times.\n(§3) HT-29, SW-480 and HCT-15 human colon adenocarcinoma, MIA PaCa-2 and BxPC-3 human pancreatic cancer, LNCAP human prostate cancer, A549 and H383 human lung cancer, MCF-7, MDA-MB 231 and SK-BR-3 human breast cancer and Jurkat T cell human leukemia cell lines were obtained from American Type Tissue Collection (Manassas, Va.) All cells lines were grown as monolayers except for the Jurkat T cells which were grown as suspension culture. The pancreatic and breast cancer cells were grown in Dulbecco's modified Eagle's medium, the prostate, Jurkat, SW-480 and HCT-15 colon cells were grown in RPMI 1640 medium, the lung cells were grown in F-12 and the colon HT-29 cells were grown in McCoy 5A. All media were supplemented with 10% fetal calf serum (Invitrogen, Carlsbad, Calif.) penicillin (50 U/ml), and streptomycin (50 μg/ml) (Invitrogen, Carlsbad, Calif.). Cells were seeded on culture dishes at a density of 25×10^3 cells/cm^2 and incubated at 37° C. in 5% CO2 and 90% relative humidity. Single cell suspensions were obtained by trypsinization (0.05% trypsin/EDTA), and cells were counted using a hemacytometer. The final DMSO concentration was adjusted in all media to 1%. Viability was determined by the trypan blue dye exclusion method.\n(§4) Cell growth inhibitory effect of all NOSH-NSAIDs was measured using a colorimetric MTT assay kit (Roche, Indianapolis, Ind.). Cancer cells were plated in 96-well plates at a density of 30,000-50,000 cells/well depending on cell type. The cells were incubated for 24 hours with different concentrations of NOSH-NSAIDs. After the indicated time, 10 μL of MTT dye (3-[4,5-dimethylthiazol-2-yl]-2,5-diphenyl tetrazolium bromide, 5 mg/mL in phosphate buffered saline), was added to each well, and the plates were incubated for 2 hours at 37° C. Then, the media was aspirated, and 100 μL of the solubilization solution (10% SDS in 0.01 M HCl) was added to each well to solubilize the formant crystals. […]"}, "[2]": {"tested_on": "MCF-7 human breast cancer", "test": "MTT cell growth inhibition, MCF7", "assay_type": "cell-based", "details": "for IC50: Homo sapiens, MCF7; for Ratio NSAID/NOSH-NSAID, MCF7: fold-enhancement in potency over the parent compound", "protocol": "as §1, §2, §3, §4"}}, "note": "Like-named read-outs stand apart in the source and are kept apart here.", "data": [{"smiles": "CC(=O)Oc1ccccc1C(=O)O", "note": "[ASA, aspirin, reference compound]", "values": [{"measurement": "COX-2-% Inhibition", "setting": "ovine COX-2; 1 mM, 15 min at 4° C. (Table 8)", "result": 70.2, "unit": "%"}, {"measurement": "inhibition at 1000 µM", "setting": "ovine COX-2; read-out: COX-2 % Inhibition, 1 mM (Table 6)", "result": "50.6 ± 1.1", "unit": "%"}, {"measurement": "inhibition at 1000 µM", "setting": "ovine COX-2; read-out: COX-2-% Inhibition, 1 mM, 15 min at 4° C. (Table 8)", "result": 68.4, "unit": "%"}, {"measurement": "inhibition at 3000 µM", "setting": "ovine COX-2", "result": 74.6, "unit": "%"}]}, {"smiles": "O=C(CCCO[N+](=O)[O-])Oc1ccccc1C(=O)Oc1ccc(-c2cc(=S)ss2)cc1", "note": "[NOSH-1, 4-(3-thioxo-3H-1,2-dithiol-5-yl)phenyl 2-((4-(nitrooxy)butanoyl)oxy)benzoate]", "values": [{"measurement": "inhibition at 0.025 µM", "setting": "ovine COX-2; 25 nM (Table 6)", "result": "5.4 ± 0.7", "unit": "%"}, {"measurement": "inhibition at 0.05 µM", "setting": "ovine COX-2; 50 nM (Table 6)", "result": "14.5 ± 1", "unit": "%"}, {"measurement": "inhibition at 0.05 µM", "setting": "ovine COX-2; 50 nM (Table 8)", "result": 23.3, "unit": "%"}, {"measurement": "COX-2-% Inhibition", "setting": "ovine COX-2; 50 nM (Table 8), listed as NOSH-ASA, 0.05 µM", "result": 20.9, "unit": "%"}, {"measurement": "inhibition at 0.1 µM", "setting": "ovine COX-2; 100 nM (Table 6)", "result": "27.2 ± 0.7", "unit": "%"}, {"measurement": "inhibition at 0.1 µM", "setting": "ovine COX-2; 100 nM (Table 8)", "result": 29.1, "unit": "%"}, {"measurement": "IC50", "setting": "[1]; 24 hours", "result": "0.1 ± 0.011", "unit": "µM"}, {"measurement": "IC50", "setting": "[2]; 24 hours", "result": "0.28 ± 0.016", "unit": "µM"}]}, {"smiles": "O=C(CCC(=O)Oc1ccccc1C(=O)Oc1ccc(-c2cc(=S)ss2)cc1)OCCCCO[N+](=O)[O-]", "note": "[NOSH-2, 4-(nitrooxy)butyl (2-((4-(3-thioxo-3H-1,2-dithiol-5-yl)phenoxy)carbonyl)phenyl) succinate]", "values": [{"measurement": "IC50", "setting": "[1]; 24 hours", "result": "0.085 ± 0.008", "unit": "µM"}, {"measurement": "IC50", "setting": "[2]; 24 hours", "result": "0.07 ± 0.005", "unit": "µM"}]}, {"smiles": "NC(=S)c1ccc(OC(=O)c2ccccc2OC(=O)CCCO[N+](=O)[O-])cc1", "note": "[NOSH-3, 4-carbamothioylphenyl 2-((4-(nitrooxy)butanoyl)-oxy)benzoate]", "values": [{"measurement": "IC50", "setting": "[1]; 24 hours", "result": "6 ± 0.22", "unit": "µM"}, {"measurement": "IC50", "setting": "[2]; 24 hours", "result": "5.7 ± 0.323", "unit": "µM"}]}, {"smiles": "O=C(CCCC[C@@H]1CCSS1)Oc1ccccc1C(=O)OCCCCO[N+](=O)[O-]", "note": "[NOSH-4, (R)-4-(nitrooxy)butyl 2-((5-(1,2-dithiolan-3-yl)pentanoyl)oxy)benzoate]", "values": [{"measurement": "IC50", "setting": "[1]; 24 hours", "result": "0.8 ± 0.022", "unit": "µM"}, {"measurement": "IC50", "setting": "[2]; 24 hours", "result": "0.28 ± 0.015", "unit": "µM"}]}, {"smiles": "CC(C(=O)Oc1ccc(-c2cc(=S)ss2)cc1)c1ccc2cc(OC(=O)CCCO[N+](=O)[O-])ccc2c1", "note": "(centres unmarked) [NOSH-7, 6-(1-oxo-1-(4-(3-thioxo-3H-1,2-dithiol-5-yl)phenoxy)propan-2-yl)naphthalen-2-yl 4-(nitrooxy)butanoate]", "values": [{"measurement": "inhibition at 0.08 µM", "setting": "ovine COX-2; 80 nM (Table 8)", "result": 18.8, "unit": "%"}, {"measurement": "COX-2-% Inhibition", "setting": "ovine COX-2; 80 nM (Table 8), listed as NOSH-NAPROXEN, 0.08 µM", "result": 15.8, "unit": "%"}, {"measurement": "inhibition at 0.16 µM", "setting": "ovine COX-2; 160 nM (Table 8)", "result": 11, "unit": "%"}, {"measurement": "IC50", "setting": "[1]; 24 hours (Table 7)", "result": 0.11, "unit": "µM"}, {"measurement": "Ratio NSAID/NOSH-NSAID, MDA MB231", "setting": "[1]", "result": "26,363"}, {"measurement": "IC50", "setting": "[2]; 24 hours (Table 7)", "result": 0.11, "unit": "µM"}, {"measurement": "Ratio NSAID/NOSH-NSAID, MCF7", "setting": "[2]", "result": "21,363"}]}, {"smiles": "CC1=C(CC(=O)Oc2ccc(OC(=O)CCCO[N+](=O)[O-])c(C(=O)Oc3ccc(-c4cc(=S)ss4)cc3)c2)c2cc(F)ccc2/C1=C/c1ccc([S+](C)[O-])cc1", "note": "(centres unmarked) [NOSH-8, (E)-4-(3-thioxo-3H-1,2-dithiol-5-yl)phenyl 5-(2-(5-fluoro-2-methyl-1-(4-(methylsulfinyl)benzylidene)-1H-inden-3-yl)acetoxy)-2-((4-(nitrooxy)butanoyl)oxy)benzoate]", "values": [{"measurement": "inhibition at 0.089 µM", "setting": "ovine COX-2; 89 nM (Table 8)", "result": 13.6, "unit": "%"}, {"measurement": "COX-2-% Inhibition", "setting": "ovine COX-2; 89 nM (Table 8), listed as NOSH-SULINDAC, 0.089 µM", "result": 12.3, "unit": "%"}, {"measurement": "IC50", "setting": "[1]; 24 hours (Table 7)", "result": 0.098, "unit": "µM"}, {"measurement": "Ratio NSAID/NOSH-NSAID, MDA MB231", "setting": "[1]", "result": "9,540"}, {"measurement": "IC50", "setting": "[2]; 24 hours (Table 7)", "result": 0.11, "unit": "µM"}, {"measurement": "Ratio NSAID/NOSH-NSAID, MCF7", "setting": "[2]", "result": "8,772"}]}, {"smiles": "COc1ccc2cc([C@H](C)C(=O)O)ccc2c1", "note": "[naproxen, reference compound]", "values": [{"measurement": "COX-2-% Inhibition", "setting": "ovine COX-2; 3 mM (Table 8)", "result": 70.2, "unit": "%"}, {"measurement": "inhibition at 3000 µM", "setting": "ovine COX-2", "result": 68.6, "unit": "%"}, {"measurement": "inhibition at 6000 µM", "setting": "ovine COX-2; read-out: COX-2-% Inhibition, 6 mM (Table 8)", "result": 74.6, "unit": "%"}, {"measurement": "IC50", "setting": "[1]; 24 hours (Table 7)", "result": 2900, "unit": "µM"}, {"measurement": "IC50", "setting": "[2]; 24 hours (Table 7)", "result": 2350, "unit": "µM"}]}, {"smiles": "CC1=C(CC(=O)O)c2cc(F)ccc2/C1=C\\c1ccc([S+](C)[O-])cc1", "note": "(centres unmarked) [sulindac, reference compound]", "values": [{"measurement": "inhibition at 800 µM", "setting": "ovine COX-2; 800 μM (Table 8)", "result": 66.8, "unit": "%"}, {"measurement": "COX-2-% Inhibition", "setting": "ovine COX-2; 800 μM (Table 8), 800 µM", "result": 68.5, "unit": "%"}, {"measurement": "inhibition at 1600 µM", "setting": "ovine COX-2; 1600 μM (Table 8)", "result": 71.1, "unit": "%"}, {"measurement": "IC50", "setting": "[1]; 24 hours (Table 7)", "result": 935, "unit": "µM"}, {"measurement": "IC50", "setting": "[2]; 24 hours (Table 7)", "result": 965, "unit": "µM"}]}]}
